Measurements reported in patent publication US8394355B2, “Use of UTP for the diagnosis of stenoses and other conditions of restricted blood flow” (P2 science Aps, priority 2009, dated 2013).
Several values for one entry are separate records, joined by “and”; a condition that tells them apart may be missing. Equal entries are not always repeated.

How the values were obtained:
[1] = test system: coronary arteries in humans with coronary artery disease; test: FFR during continuous intracoronary infusion via guiding catheter (Example 2); format: in vivo; design: key to lowest FFR level / difference in FFR between adenosine and UTP / FFR / FFR Mean: FFR = Pd/Pa (distal/proximal coronary pressure ratio); conditions: for adverse effects during IC continuous infusion / % of patients with FFR ≦ 0.75 / % of patients with FFR ≦ 0.8: guiding catheter study; for % of patients with FFR ≦ 0.75 / % of patients with FFR ≦ 0.8: 240 μg/min (n = 23); for lowest FFR level: lowest mean over the dose response curve, ± 2SEM, P<0.05
Procedure: The study was performed in 23 patients undergoing elective coronary arteriography (CAG) due to repetitive episodes of typical ischemic chest pain or in patients with recent Non-ST Elevated Myocardial Infarction (>2 days from entry into study). In eligible patients with uni- or multivessel coronary artery disease, lesions with stenosis of at least 50% of their diameter and that were thought to require PCI on the basis of angiographic appearance and clinical data were identified.
In the first part of the experiment, FFR and Coronary Flow (velocity, CFR) were measured after the induction of coronary hyperemia by a continuous intracoronary infusion of UTP (Jena Bioscience GmbH, Germany) and adenosine in random order in a guide catheter (5F catheter, Cordis Corp.). Two UTP doses of 240 and 360 μg/min were tested. UTP was prepared by dissolving 100 mg of UTP trisalt (Sigma Aldrich) in 50 ml isotonic NaCl. Of this 50 ml solution, 40 ml was filter sterilized and added to sterile NaCl solution to a final volume of 500 ml, providing a 0.16 mg/ml concentration. 8-10 50 ml syringes of this solution can be prepared (2 syringes per FFR study). 3 ml/min=480 μg/min=0.9 μmol/min. Subjects thus received either 1.5 ml/min of UTP infusion or 2.25 mL/min of UTP infusion for a total of 3 minutes each. Patients also received adenosine (Sigma Aldrich) in the same eqipotent concentration.
All measurements were performed on at least 2 separate occasions to achieve a reproducible result with a mean value calculated. After each measurement, care was taken that APV returned to baseline before the administration of the next dose. For all measurements using both drugs and both routes of administration, changes in heart rate, blood pressure, and ECG were recorded.
In the second part of the experiment, a full dose response curve was generated for a gradual incremental increase in continuous UTP infusion while both CFR and FFR were measured simultaneously prior to percutaneous coronary intervention (PCI). Hyperemia was induced at 80 μg/min of continuous intracoronary UTP and adenosine, and the flow reserve values were compared (Table 1).
In the third part of the experiment, both CFR and FFR were measured simultaneously after percutaneous coronary intervention (PCI). Hyperemia was induced by either 240 or 360 μg/min of continuous intracoronary UTP and equipotent adenosine, and the flow reserve values were in some patients compared with the hyperemic response of a complete, proximal coronary occlusion for 30 s.
FFR is defined as the ratio of hyperemic flow in a stenotic artery to the hyperemic flow in the same artery if there was no stenosis present. FFR therefore expresses maximum hyperemic blood flow in a stenotic vessel as a fraction of its normal value. FFR can be calculated from intracoronary pressure measurements obtained during maximal hyperemia by the following equation: FFR═Pd−Pv/Pa−Pv→Pd/Pa, where Pa is the mean proximal coronary pressure (mean aortic pressure), Pd is the mean distal coronary pressure, and Pv is the mean central venous pressure. The coronary flow (velocity) reserve is the ratio of maximum to baseline hyperemic coronary flow velocity and is used as a surrogate for CFR. Using the Volcano Combomap®, APV throughout the cardiac phase was measured and CFR calculated from APV(hyperemia)/APV(basal).

[2] = test system: coronary arteries in humans with coronary artery disease; test: FFR during continuous intracoronary infusion via microcatheter (Example 3); format: in vivo; conditions: individual patients, 320 μg/min
[3] = mean of six patients, 80 μg/min

SMILES: Nc1ncnc2c1ncn2[C@@H]1O[C@H](CO)[C@@H](O)[C@H]1O [adenosine]
- adverse effects during IC continuous infusion [1]: most patients felt uncomfortable chest pain and 2 patients had 3 degree A-V block
- % of patients with FFR ≦ 0.75 [1]: 39%
- % of patients with FFR ≦ 0.8 [1]: 43%
- FFR ([1]; individual patients (row = patient no.), IC continuous infusion 80 μg/min, guide catheter, listed as ADO): 0.83 and 0.95 and 0.76 and 0.88
- FFR ([1]; individual patients, 160 μg/min, listed as ADO): 0.80 and 0.95 and 0.60 and 0.96 and 0.75
- FFR ([1]; individual patients, 240 μg/min, listed as ADO): 0.81 and 0.94 and 0.60 and 0.87 and 0.91 and 0.71
- FFR ([1]; individual patients, 320 μg/min, listed as ADO): 0.79 and 0.96 and 0.54 and 1.02 and 0.89 and 0.70
- FFR ([1]; individual patients, 400 μg/min, listed as ADO): 0.56 and 1.01 and 0.89
- lowest FFR level [1]: 0.81±0.11
- FFR Mean [1, 3]: 0.86
- FFR Mean ([1]; mean, 160 μg/min): 0.81
- FFR Mean ([1]; mean, 240 μg/min): 0.81
- FFR Mean ([1]; mean, 320 μg/min): 0.82
- FFR Mean ([1]; mean, 400 μg/min): 0.82
- FFR ([2]; listed as ADO): 0.79 and 0.96 and 0.54 and 0.70 (2×) and 0.95 and 0.86 and 1.02 and 0.89

SMILES: O=c1ccn([C@@H]2O[C@H](COP(=O)(O)OP(=O)(O)OP(=O)(O)O)C(O)[C@@H]2O)c(=O)[nH]1 (stereo partly shown) [UTP, Uridine 5-triphosphate]
- FFR in comparison to adenosine infusion ([1]; all 23 patients, IC 240 μg/min, p=0.003, FIG. 1): significantly decreased
- time to induction of maximal hyperemia ([1]; all IC continuous infusion rates, versus adenosine): shorter
- optimal dose for achieving maximal coronary hyperemia ([1]; guide catheter method): 80 to 400 µg/min
- adverse effects during IC continuous infusion [1]: None of the UTP-treated patients in the current trial had chest pain, dyspnea, second or 3 degree A-V block or changes in systemic blood pressure and heart rate
- % of patients with FFR ≦ 0.75 [1]: 47%
- % of patients with FFR ≦ 0.8 [1]: 65%
- FFR ([1]; individual patients (row = patient no.), IC continuous infusion 80 μg/min, guide catheter): 0.73 and 0.79 and 0.88 and 0.56
- FFR ([1]; individual patients, 160 μg/min): 0.90 and 0.73 and 0.79 and 0.86 and 0.56
- FFR ([1]; individual patients, 240 μg/min): 0.89 (2×) and 0.73 and 0.79 and 0.87 and 0.55
- FFR ([1]; individual patients, 320 μg/min): 0.90 and 0.89 and 0.72 and 0.77 and 0.86 and 0.56
- FFR ([1]; individual patients, 400 μg/min): 0.90 and 0.92 and 0.56
- lowest FFR level [1]: 0.74±0.13
- FFR Mean [1, 3]: 0.74
- FFR Mean ([1]; mean, 160 μg/min): 0.77
- FFR Mean ([1]; mean, 240 μg/min): 0.79
- FFR Mean ([1]; mean, 320 μg/min): 0.78
- FFR Mean ([1]; mean, 400 μg/min): 0.79
- difference in FFR between adenosine and UTP ([1]; standard deviation of 0.15-0.17, p=0.003): 0.05
- FFR [2]: 0.90 (2×) and 0.89 and 0.72 and 0.77 and 0.86 and 0.56 and 0.69 and 0.84
